# Results: patent publication US6469010B1, “Medicament for the alleviation or treatment of symptom derived from the ischemic disease and compound useful thereof” (Suntory Limited, priority 1995, dated 2002)
# Legend:
# Acute toxicity test = conditions: male, mouse, in vivo, iv, ddY mice, death rate up to 24 hours after administration
# Description: Medicine was intravenously administered to ddY mice (male, 6 weeks old). The 50 percent lethal dosage LD50 of the acute toxicity was calculated by an ordinary method from the death rate up to 24 hours after administration.
# T-type Ca2+ channel = test: T-type calcium channel inhibiting action (whole-cell patch clamp, hippocampal CA1 pyramidal cells); assay type: cell-based, Wistar rats; conditions: rat hippocampal CA1 pyramidal cells; suppression of peak current after one minute of application
# Description: T-Type Calcium Channel Inhibiting Action
# The hippocampal CA1 pyramidal cells were isolated from Wistar rats (female, 1 week old) in accordance with the method of Takahashi et al. K. Takahashi et al.; J Pharmacol. Exp; Ther., 256, 169 (1991)] and the T-type calcium current under conditions of a fixed membrane potential was measured using the whole-cell configuration of the pach clamp technique. The effects of the compounds were evaluated from the rate of suppression of the peak current after one minute of application using the concentration clamp method.
# Na+ channel = test: Veratridine-induced sodium channel activity inhibiting action (membrane potential of synaptosomes, Rhodamine 6G); assay type: biochemical, Wistar rats; conditions: 0.1 μM of compound; rat brain synaptosomes, veratridine-induced depolarization
# Description: Veratridine-induced Sodium Channel Activity Inhibiting Action
# The membrane potential of the synaptosomes prepared from the brain membrane of Wistar rats (male, 10 to 12 weeks old) was measured by the method of Aiuchi et al. [T. Aiuchi et al: Biochimi. Biophys. Acta.
# Dopamine D2 receptor = target: T1, Dopamine D2 receptor (Rattus norvegicus, UniProt P61169); test: Dopamine D2 receptor blocking action ([3H]raclopride binding, striatum membrane fraction); design: species or system Wister male rats; conditions: 1.0 nM [3H]raclopride, 25° C., one hour
# T1 construct: membrane fraction prepared from the striatum of Wister male rats; from tissue; host or cells: rat striatum membrane fraction
# T1 sequence (P61169 whole entry): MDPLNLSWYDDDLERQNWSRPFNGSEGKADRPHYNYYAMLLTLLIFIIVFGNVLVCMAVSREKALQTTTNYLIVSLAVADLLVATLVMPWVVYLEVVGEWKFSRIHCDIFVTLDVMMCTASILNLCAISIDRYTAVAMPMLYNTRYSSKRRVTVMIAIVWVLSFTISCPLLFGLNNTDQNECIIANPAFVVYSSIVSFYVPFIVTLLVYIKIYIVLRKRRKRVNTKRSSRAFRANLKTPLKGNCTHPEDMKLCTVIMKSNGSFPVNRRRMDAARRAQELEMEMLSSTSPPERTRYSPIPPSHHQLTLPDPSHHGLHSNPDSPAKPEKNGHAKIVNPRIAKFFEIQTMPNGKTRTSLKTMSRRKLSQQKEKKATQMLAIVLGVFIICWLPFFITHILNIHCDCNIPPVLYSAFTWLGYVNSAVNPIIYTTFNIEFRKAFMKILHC
# Description: Dopamine D2 Receptor Blocking Action
# 57 μl of the membrane fraction prepared from the striatum of Wister male rats,(6 weeks old) was incubated in a buffer at 25° C. for one hour along with the compound and 1.0 nM [^3H) raclopride. A GF/C glass filter (0.1% polyethylene imine treatment) was used for separation of the B and F, then the radioactivity was measured by a beta plate and the effect of the compound was evaluated.
# DBA/2N mice = test: Audiogenic seizure suppressing action; assay type: in vivo; conditions: Mus musculus, ip, 20 min; compound 10 mg/kg, i.p.; audio stimulus after 20 minutes; suppression of average seizure score; read-out: Antiseizure action (suppression rate %)
# Description: Audiogenic Seizure Suppressing Action
# The audiogenic seizure suppressing action of the compounds was evaluated by the method of Sarro et al. [G. B. De Sarro et al.; Br. J. Pharmacol., 93, 247 (1988)]. That is, DBA/2N mice (male, 3 weeks) were administered with the compound dissolved in 10% 2-hydroxypropyl-β-cyclodextrin intraperitoneally. After 20 minutes, a supersonic washer was used to apply audio stimulus of at least 90 dB for one minute. The wild running (WR), clonic seizures (clonus), tonic seizures (tonus), and respiratory arrest (RA) were evaluated. The seizure suppressing action was evaluated from the rate or suppression of the average value of the seizure score found from 0=no response, 1=WR, 2=clonus, 3=tonus, and 4=RA.
smiles,measurement,setting,value
"C(=C\c1ccccc1)/CN1CCC(c2ccc(Oc3ccccc3)cc2)CC1 [Compound 21, (E)-4-(4-phenoxyphenyl)-1-(3-phenyl-2-propenyl)piperidine]",LD50 at 24 h,Acute toxicity test,40.9 mg/kg
same,IC50,T-type Ca2+ channel,0.8 µM
same,Antiveratridine action (inhibiting rate %),Na+ channel,20.3%
same,IC50,Dopamine D2 receptor,2.68 µM
same,inhibition in vivo at 10 mg/kg,DBA/2N mice,77.3%
"OC(CN1CCC(c2ccc(Cc3ccc(F)cc3)cc2)CC1)c1ccccc1 (stereo not shown) [Compound 79, 4-[4-(4-fluorophenyl)methylphenyl]-1-(2-hydroxy-2-phenyl)ethylpiperidine]",IC50,T-type Ca2+ channel,3.1 µM
same,Antiveratridine action (inhibiting rate %),Na+ channel,37.1%
same,inhibition in vivo at 10 mg/kg,DBA/2N mice,79.8%
"Fc1ccc(Cc2ccc(C3CCN(C/C=C/c4ccccc4)CC3)cc2)cc1 [Compound 32, (E)-4-[4-(4-fluorophenyl)methylphenyl]-1-(3-phenyl-2-propenyl)piperidine]",LD50 at 24 h,Acute toxicity test,32.9 mg/kg
same,IC50,T-type Ca2+ channel,0.6 µM
same,Antiveratridine action (inhibiting rate %),Na+ channel,33.3%
same,IC50,Dopamine D2 receptor,3.36 µM
same,inhibition in vivo at 10 mg/kg,DBA/2N mice,94%
"OC(COc1ccccc1)CN1CCC(c2ccc(Oc3ccccc3)cc2)CC1 (stereo not shown) [Compound 80, 1-(2-hydroxy-3-phenoxy)propyl-4-(4-phenoxyphenyl)piperidine]",IC50,T-type Ca2+ channel,1.9 µM
same,Antiveratridine action (inhibiting rate %),Na+ channel,49.7%
same,inhibition in vivo at 10 mg/kg,DBA/2N mice,66.3%
COc1cc(/C=C/CN2CCN(c3ccc(Cc4ccc(F)cc4)cc3)CC2)ccc1O [Compound 49],Antiveratridine action (inhibiting rate %),Na+ channel,17.3%
same,IC50,Dopamine D2 receptor,0.987 µM
same,inhibition in vivo at 10 mg/kg,DBA/2N mice,60%
"Fc1ccc(/C=C/CN2CCN(c3ccc(Cc4ccc(F)cc4)cc3)CC2)cc1 [Compound 50, (E)-1-[4-(4-fluorophenyl)methylphenyl]-4-[3-(4-fluorophenyl)-2-propenyl]-piperazine]",IC50,T-type Ca2+ channel,4.2 µM
same,inhibition in vivo at 10 mg/kg,DBA/2N mice,72%
"c1ccc(Oc2ccc(C3CCN(C[C@@H]4C[C@H]4c4ccccc4)CC3)cc2)cc1 (relative stereo) [Compound 26, 4-(phenoxyphenyl)-1-[trans-(2-phenyl)cyclopropylmethyl]piperidine]",LD50 at 24 h,Acute toxicity test,32.9 mg/kg
same,IC50,T-type Ca2+ channel,2.8 µM
same,Antiveratridine action (inhibiting rate %),Na+ channel,36.5%
same,IC50,Dopamine D2 receptor,3.37 µM
same,inhibition in vivo at 10 mg/kg,DBA/2N mice,78%
"COc1ccc(Cc2ccc(C3CCN(C/C=C/c4ccccc4)CC3)cc2)cc1 [Compound 75, 4-[4-(4-methoxyphenyl)methylphenyl]-(E)-1-(3-phenyl-2-propenyl)piperidine]",IC50,T-type Ca2+ channel,1.4 µM
same,Antiveratridine action (inhibiting rate %),Na+ channel,55.2%
same,inhibition in vivo at 10 mg/kg,DBA/2N mice,99%
"c1ccc(Oc2ccc(C3CCN(CC4(c5ccccc5)OCCO4)CC3)cc2)cc1 [Compound 73, 2-[4-(4-phenoxyphenyl)piperidin-1-yl]methyl-2-phenyl-1,3-dioxolane]",IC50,T-type Ca2+ channel,4.6 µM
same,Antiveratridine action (inhibiting rate %),Na+ channel,16.1%
same,inhibition in vivo at 10 mg/kg,DBA/2N mice,52.2%
Fc1ccc(Cc2ccc(N3CCN(C/C=C/c4ccccc4)CC3)cc2)cc1 [Compound 47],LD50 at 24 h,Acute toxicity test,43.2 mg/kg
same,IC50,T-type Ca2+ channel,2.7 µM
same,Antiveratridine action (inhibiting rate %),Na+ channel,22.9%
same,IC50,Dopamine D2 receptor,3.96 µM
same,inhibition in vivo at 10 mg/kg,DBA/2N mice,64.1%
